Columns and labels:
Test in all cases: NCI-60 one-dose screen
Format in all cases: cell-based
786-0 = conditions: Homo sapiens; 786-0, Renal Cancer panel; single dose 10^−5 M; read-out: Growth inhibition %
A498 = conditions: Homo sapiens; A498, Renal Cancer panel; single dose 10^−5 M; read-out: Growth inhibition %
A549/ATCC = conditions: Homo sapiens, Non-small cell lung panel, single dose 10^−5 M, read-out: Growth inhibition %
ACHN = conditions: Homo sapiens, Renal Cancer panel, single dose 10^−5 M, read-out: Growth inhibition %
BT-549 = conditions: Homo sapiens; BT-549, Breast Cancer panel; single dose 10^−5 M; read-out: Growth inhibition %
CAKI-1 = conditions: Homo sapiens; CAKI-1, Renal Cancer panel; single dose 10^−5 M; read-out: Growth inhibition %
COLO 205 = conditions: Homo sapiens; COLO 205, Colon Cancer panel; single dose 10^−5 M; read-out: Growth inhibition %
DU-145 = conditions: Homo sapiens; DU-145, Prostate Cancer panel; single dose 10^−5 M; read-out: Growth inhibition %
HCC-2998 = conditions: Homo sapiens; HCC-2998, Colon Cancer panel; single dose 10^−5 M; read-out: Growth inhibition %
HCT-116 = conditions: Homo sapiens, read-out: Growth inhibition %
HOP-62 = conditions: Homo sapiens; HOP-62, Non-small cell lung panel; single dose 10^−5 M; read-out: Growth inhibition %
K-562 = conditions: Homo sapiens, K562; K-562, Leukemia panel; single dose 10^−5 M; read-out: Growth inhibition %
KM12 = conditions: Homo sapiens; KM12, Colon Cancer panel; single dose 10^−5 M; read-out: Growth inhibition %
MCF7 = conditions: Homo sapiens; MCF7, Breast Cancer panel; single dose 10^−5 M; read-out: Growth inhibition %
MDA-MB-468 = conditions: Homo sapiens; MDA-MB-468, Breast Cancer panel; single dose 10^−5 M; read-out: Growth inhibition %
NCI-H226 = conditions: Homo sapiens; NCI-H226, Non-small cell lung panel; single dose 10^−5 M; read-out: Growth inhibition %
NCI-H522 = conditions: Homo sapiens; NCI-H522, Non-small cell lung panel; single dose 10^−5 M; read-out: Growth inhibition %
NCI/ADR-RES = conditions: Homo sapiens, Ovarian Cancer panel, single dose 10^−5 M, read-out: Growth inhibition %
PC-3 = conditions: Homo sapiens; PC-3, Prostate Cancer panel; single dose 10^−5 M; read-out: Growth inhibition %
RXF 393 = conditions: Homo sapiens; RXF 393, Renal Cancer panel; single dose 10^−5 M; read-out: Growth inhibition %
SF-295 = conditions: Homo sapiens; SF-295, CNS Cancer panel; single dose 10^−5 M; read-out: Growth inhibition %
SF-539 = conditions: Homo sapiens; SF-539, CNS Cancer panel; single dose 10^−5 M; read-out: Growth inhibition %
SK-MEL-28 = conditions: Homo sapiens; SK-MEL-28, Melanoma panel; single dose 10^−5 M; read-out: Growth inhibition %
SK-MEL-5 = conditions: Homo sapiens; SK-MEL-5, Melanoma panel; single dose 10^−5 M; read-out: Growth inhibition %
SK-OV-3 = conditions: Homo sapiens; SK-OV-3, Ovarian Cancer panel; single dose 10^−5 M; read-out: Growth inhibition %
SN12C = conditions: Homo sapiens, Renal Cancer panel, single dose 10^−5 M, read-out: Growth inhibition %
SNB-19 = conditions: Homo sapiens; SNB-19, CNS Cancer panel; single dose 10^−5 M; read-out: Growth inhibition %
SR = conditions: Homo sapiens, Leukemia panel, single dose 10^−5 M, read-out: Growth inhibition %
SW-620 = conditions: Homo sapiens; SW-620, Colon Cancer panel; single dose 10^−5 M; read-out: Growth inhibition %
U251 = conditions: Homo sapiens, U-251; U251, CNS Cancer panel; single dose 10^−5 M; read-out: Growth inhibition %
UACC-62 = conditions: Homo sapiens; UACC-62, Melanoma panel; single dose 10^−5 M; read-out: Growth inhibition %
UO-31 = conditions: Homo sapiens; UO-31, Renal Cancer panel; single dose 10^−5 M; read-out: Growth inhibition %

Row | SMILES | inhibition at 10 µM (786-0) | inhibition at 10 µM (A498) | inhibition at 10 µM (A549/ATCC) | inhibition at 10 µM (ACHN) | inhibition at 10 µM (BT-549) | inhibition at 10 µM (CAKI-1) | inhibition at 10 µM (COLO 205) | inhibition at 10 µM (DU-145) | inhibition at 10 µM (HCC-2998) | inhibition at 10 µM (HCT-116) | inhibition at 10 µM (HOP-62) | inhibition at 10 µM (K-562) | inhibition at 10 µM (KM12) | inhibition at 10 µM (MCF7) | inhibition at 10 µM (MDA-MB-468) | inhibition at 10 µM (NCI-H226) | inhibition at 10 µM (NCI-H522) | inhibition at 10 µM (NCI/ADR-RES) | inhibition at 10 µM (PC-3) | inhibition at 10 µM (RXF 393) | also measured
1 | c1coc(CNc2c3ccccc3nc3ccccc23)c1 [Compound 14, Acridin-9-yl-furan-2-ylmethyl-amine] | 34.3% | 79.9% | 38.1% | 73.8% | 2.59% | 59% | 64.8% | 24% | 31.1% | 76% | 30.4% | 55.3% | 14.5% | 78.7% | 70.7% | 37.1% | 52.7% | 55.2% | 33% | 38.5% | inhibition at 10 µM (SF-295): 46.1%; inhibition at 10 µM (SF-539): 34.1%; inhibition at 10 µM (SK-MEL-28): 2.28%; inhibition at 10 µM (SK-MEL-5): 15.7%; inhibition at 10 µM (SK-OV-3): 29.1%; inhibition at 10 µM (SN12C): 46.5%; inhibition at 10 µM (SNB-19): 37.2%; inhibition at 10 µM (SR): 66%; inhibition at 10 µM (SW-620): 57.7%; inhibition at 10 µM (U251): 34.9%; inhibition at 10 µM (UACC-62): 33.9%; inhibition at 10 µM (UO-31): 60.5%
2 | Cc1ccc2nc3ccccc3c(NCc3ccccc3)c2c1 [Compound 30, Benzyl-(2-methylacridin-9-yl)-amine] | 65.7% | 88.6% | 59.8% | 76.8% | 31% | 64.5% | 91.9% | 64.2% | 121% | 90.6% | 56.5% | 89% | 43.7% | 88.8% | 111% | 50.2% | 63% | 70.2% | 70.3% | 98.7% | inhibition at 10 µM (SF-295): 72%; inhibition at 10 µM (SF-539): 76.8%; inhibition at 10 µM (SK-MEL-28): 22%; inhibition at 10 µM (SK-MEL-5): 41.2%; inhibition at 10 µM (SK-OV-3): 35.7%; inhibition at 10 µM (SN12C): 74.5%; inhibition at 10 µM (SNB-19): 68.2%; inhibition at 10 µM (SR): 95.9%; inhibition at 10 µM (SW-620): 75.7%; inhibition at 10 µM (U251): 63%; inhibition at 10 µM (UACC-62): 43.6%; inhibition at 10 µM (UO-31): 81.7%
3 | Fc1ccc(CNc2c3ccccc3nc3ccccc23)c(F)c1 [Compound 21, Acridin-9-yl-(2,4-difluorobenzyl)-amine] | 52.4% | 104% | 59.9% | 76.5% | 17.2% | 64.7% | 73.2% | 49.1% | 58.7% | 85.8% | 42.8% | 77.5% | 40% | 89.8% | 104% | 45.2% | 57.7% | 63.8% | 31.1% | 65.5% | inhibition at 10 µM (SF-295): 59.6%; inhibition at 10 µM (SF-539): 67.6%; inhibition at 10 µM (SK-MEL-28): 9.61%; inhibition at 10 µM (SK-MEL-5): 30.6%; inhibition at 10 µM (SK-OV-3): 40.2%; inhibition at 10 µM (SN12C): 62.8%; inhibition at 10 µM (SNB-19): 58.5%; inhibition at 10 µM (SR): 74.8%; inhibition at 10 µM (SW-620): 70.2%; inhibition at 10 µM (U251): 55.9%; inhibition at 10 µM (UACC-62): 40.9%; inhibition at 10 µM (UO-31): 69.7%
4 | Clc1cccc(CNc2c3ccccc3nc3ccccc23)c1 [Compound 12, Acridin-9-yl-(3-chlorobenzyl)-amine] | 74.8% | 103% | 72.1% | 84.3% | 40.9% | 71.8% | 99.5% | 68.3% | 154% | 91.3% | 54.5% | 95% | 59.2% | 99.1% | 118% | 52% | 58.3% | 73.7% | 76.5% | 81% | inhibition at 10 µM (SF-295): 79.2%; inhibition at 10 µM (SF-539): 90.7%; inhibition at 10 µM (SK-MEL-28): 33.8%; inhibition at 10 µM (SK-MEL-5): 33.8%; inhibition at 10 µM (SK-OV-3): 36.1%; inhibition at 10 µM (SN12C): 76.4%; inhibition at 10 µM (SNB-19): 73.6%; inhibition at 10 µM (SR): 104%; inhibition at 10 µM (SW-620): 88%; inhibition at 10 µM (U251): 77.3%; inhibition at 10 µM (UACC-62): 47.5%; inhibition at 10 µM (UO-31): 84%
5 | Fc1ccc(CNc2c3ccccc3nc3ccccc23)cc1F [Compound 22, Acridin-9-yl-(3,4-difluorobenzyl)-amine] | 68.5% | 90.2% | 70.9% | 80.7% | 31.8% | 74.7% | 83.9% | 60.5% | 97.8% | 91.8% | 48.7% | 87.7% | 46.7% | 87.1% | 111% | 52.4% | 63% | 72.4% | 64.3% | 92.6% | inhibition at 10 µM (SF-295): 70.2%; inhibition at 10 µM (SF-539): 77.9%; inhibition at 10 µM (SK-MEL-28): 17.6%; inhibition at 10 µM (SK-MEL-5): 33.8%; inhibition at 10 µM (SK-OV-3): 44.3%; inhibition at 10 µM (SN12C): 70.3%; inhibition at 10 µM (SNB-19): 67.1%; inhibition at 10 µM (SR): 83%; inhibition at 10 µM (SW-620): 76.3%; inhibition at 10 µM (U251): 69.7%; inhibition at 10 µM (UACC-62): 40%; inhibition at 10 µM (UO-31): 84.5%

Source: PMC9866191, “Novel 9-Benzylaminoacridine Derivatives as Dual Inhibitors of Phosphodiesterase 5 and Topoisomerase II for the Treatment of Colon Cancer” (Molecules, 2023)
